Data on 1 substance can be found in patent US5354843A, “Flanking peptides of calcitonin and processes for their manufacture” (Ciba-Geigy Corporation, priority 1988, dated 1994).

The nature of this data set: isoelectric point. The data set is classed as physicochemical. From the text: FAB-MS: MH^+ 6220 (calculated molecular weight: 6220), isoelectric point: 4.2 (calculated: 4.04).

The substance “human procalcitonin amino-terminal flanking peptide [PCATFP]” returned an isoelectric point of 4.2.
